Measurements published in ChEMBL document CHEMBL1133220, “Potent new leucine aminopeptidase inhibitor of novel structure synthesised by a modified Wadsworth-Emmons (Horner) Wittig procedure” (Bioorg Med Chem Lett, 2000).

Target: Cytosol aminopeptidase (Homo sapiens, UniProt P28838)
Assay: Inhibitory activity against leucine aminopeptidase

Chain of Cytosol aminopeptidase (P28838 whole entry): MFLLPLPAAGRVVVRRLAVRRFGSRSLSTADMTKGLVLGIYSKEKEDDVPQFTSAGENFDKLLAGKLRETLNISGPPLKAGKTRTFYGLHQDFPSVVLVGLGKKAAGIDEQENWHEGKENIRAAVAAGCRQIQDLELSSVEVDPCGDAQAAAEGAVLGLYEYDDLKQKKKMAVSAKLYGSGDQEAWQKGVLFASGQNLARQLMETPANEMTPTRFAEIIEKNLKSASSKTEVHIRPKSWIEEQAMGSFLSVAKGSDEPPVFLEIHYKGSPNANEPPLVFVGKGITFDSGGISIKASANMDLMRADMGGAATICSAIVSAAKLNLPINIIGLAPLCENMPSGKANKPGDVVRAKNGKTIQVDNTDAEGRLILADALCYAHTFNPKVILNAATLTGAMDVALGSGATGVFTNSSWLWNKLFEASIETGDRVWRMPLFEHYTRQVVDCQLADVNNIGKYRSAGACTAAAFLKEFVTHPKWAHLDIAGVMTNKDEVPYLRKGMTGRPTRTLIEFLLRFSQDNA

Ki: 76 nM
SMILES: COC(=O)/C=C\C(=O)[C@@H](N)CC(C)C
